We go through six molecules from ChEMBL document CHEMBL1201862, “PubChem BioAssay data set” (2004).

The source made the active and inactive calls. Where only a bound is given, the exact number is not on record here.

One assay addresses T1, Leucine aminopeptidase (Plasmodium falciparum 3D7, UniProt Q8IL11).
T1 sequence (Q8IL11 whole entry): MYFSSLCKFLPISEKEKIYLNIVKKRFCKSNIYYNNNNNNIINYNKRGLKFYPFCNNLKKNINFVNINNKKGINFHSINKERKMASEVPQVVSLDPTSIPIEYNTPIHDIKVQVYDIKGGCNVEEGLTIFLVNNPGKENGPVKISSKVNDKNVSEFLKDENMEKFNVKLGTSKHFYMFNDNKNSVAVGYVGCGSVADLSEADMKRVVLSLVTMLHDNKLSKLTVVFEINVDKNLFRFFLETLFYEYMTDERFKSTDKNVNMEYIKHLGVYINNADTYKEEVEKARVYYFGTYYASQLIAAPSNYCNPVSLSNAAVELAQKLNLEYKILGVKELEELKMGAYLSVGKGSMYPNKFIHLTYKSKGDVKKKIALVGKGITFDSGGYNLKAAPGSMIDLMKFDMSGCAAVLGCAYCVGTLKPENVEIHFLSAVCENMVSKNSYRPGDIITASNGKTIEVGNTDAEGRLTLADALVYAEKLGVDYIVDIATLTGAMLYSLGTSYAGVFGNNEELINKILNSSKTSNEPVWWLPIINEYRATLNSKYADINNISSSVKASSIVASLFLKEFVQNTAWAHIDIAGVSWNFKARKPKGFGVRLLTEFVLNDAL
Briefly: P. falciparum M17LAP inhibitors, primary screen, biochemical, fluorogenic H-Leu-NHMec substrate, 1536-well (AID 1619). It counts as functional.

Assay [1] in a line: ARNT/TACC3 interaction disruptors, potency, confirmation, biochemical, AlphaScreen, cherry-picked samples (AID 651703).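 Note: His-tagged ARNT PAS-B domain paired with GST-TACC3 E629A dimer coactivator fragment; potency of inhibitors that break up the complex and lower AlphaScreen signal.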 It counts as functional, Homo sapiens. In general terms: Alpha assays give light when donor and acceptor beads are brought close together.
The target in assay [2] is T2, ATP-dependent translocase ABCB1 (Homo sapiens, UniProt P08183). Briefly: ABCB1 efflux inhibitor potency, dose response, Jurkat-DNR cells, JC-1, flow cytometry, set 2 (AID 504569).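 Note: potency of pump inhibitors that raise cellular JC-1 green fluorescence up to the nicardipine level.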 It counts as functional. The note with it: read-out: EC50_MICROM_. A general note: Flow cytometry measures light scatter and fluorescence of single cells or particles in a stream.
T2 sequence (P08183 whole entry): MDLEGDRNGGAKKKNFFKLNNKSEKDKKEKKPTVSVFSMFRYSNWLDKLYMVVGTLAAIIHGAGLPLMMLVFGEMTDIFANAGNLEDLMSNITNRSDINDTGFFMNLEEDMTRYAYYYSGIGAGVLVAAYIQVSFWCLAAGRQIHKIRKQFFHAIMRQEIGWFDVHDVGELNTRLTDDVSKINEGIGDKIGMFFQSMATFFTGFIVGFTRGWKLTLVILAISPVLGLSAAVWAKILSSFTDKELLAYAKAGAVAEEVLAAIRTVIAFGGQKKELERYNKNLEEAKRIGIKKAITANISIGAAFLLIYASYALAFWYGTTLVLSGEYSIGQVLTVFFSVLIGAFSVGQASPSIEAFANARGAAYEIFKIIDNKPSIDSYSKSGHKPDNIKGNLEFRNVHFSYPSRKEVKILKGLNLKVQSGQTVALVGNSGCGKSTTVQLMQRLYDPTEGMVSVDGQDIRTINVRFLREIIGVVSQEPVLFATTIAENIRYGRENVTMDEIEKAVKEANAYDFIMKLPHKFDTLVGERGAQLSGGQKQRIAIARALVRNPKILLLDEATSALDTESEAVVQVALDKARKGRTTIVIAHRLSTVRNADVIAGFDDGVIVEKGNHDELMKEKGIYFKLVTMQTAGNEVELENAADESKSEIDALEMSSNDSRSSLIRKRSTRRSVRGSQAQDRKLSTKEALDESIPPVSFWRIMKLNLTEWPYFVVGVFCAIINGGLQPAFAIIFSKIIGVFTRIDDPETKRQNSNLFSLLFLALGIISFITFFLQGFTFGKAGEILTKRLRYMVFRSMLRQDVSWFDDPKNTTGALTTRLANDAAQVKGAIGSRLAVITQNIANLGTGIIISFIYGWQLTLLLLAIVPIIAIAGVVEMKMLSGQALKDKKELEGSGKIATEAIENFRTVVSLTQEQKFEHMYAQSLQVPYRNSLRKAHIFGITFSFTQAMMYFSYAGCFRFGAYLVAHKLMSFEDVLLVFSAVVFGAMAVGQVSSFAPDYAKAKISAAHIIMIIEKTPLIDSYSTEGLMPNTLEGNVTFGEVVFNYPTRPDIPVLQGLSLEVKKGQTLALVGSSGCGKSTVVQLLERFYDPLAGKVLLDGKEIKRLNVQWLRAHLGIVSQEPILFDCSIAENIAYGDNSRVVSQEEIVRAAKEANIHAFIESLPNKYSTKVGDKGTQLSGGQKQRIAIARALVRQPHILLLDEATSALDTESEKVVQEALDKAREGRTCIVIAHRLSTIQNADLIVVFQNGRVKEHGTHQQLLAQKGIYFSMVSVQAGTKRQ
Assay [3] concerns the target T2, ATP-dependent translocase ABCB1. Briefly: ABCG2 efflux pump inhibitor potency, dose response, Ig-MXP3 cells, JC-1, flow cytometry, set 2 (AID 504566).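 Note: flow cytometry median green fluorescence of retained JC-1 dye; potency of efflux pump inhibition measured as rising substrate retention.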 Type of assay: functional. The following applies: read-out: EC50_MICROM_.
Assay [4] has as its target Photoreceptor-specific nuclear receptor (Homo sapiens, UniProt Q9Y5X4). Type of assay: functional, cell-based.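 Note: CHO-S cells with Gal4-NCOR and VP16-NR2E3 two-hybrid luciferase reporter.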
Assay [5] in a line: cells. Type of assay: functional, cell-based.
Assay [6] addresses T3, Probable nicotinate-nucleotide adenylyltransferase (Staphylococcus aureus (strain N315), UniProt P65502). Type of assay: functional, Staphylococcus aureus subsp. aureus N315. The note with it: read-out: IC50_Mean.
Assay [7] is described as follows: cells. Type of assay: functional, cell-based. This is another data set of the same source.
For assay [8], the target named is T3, Probable nicotinate-nucleotide adenylyltransferase. It counts as functional, Staphylococcus aureus subsp. aureus N315.
Assay [9] is described as follows: Luminescence Cell-Based Dose Retest to Confirm Inhibitors of Cancer Stem Cells. [Related pubchem assays (depositor defined):AID2717, AID2721]. It counts as functional. The following applies: Homo sapiens.
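Throughout, for IC50 Mean: confirmatory dose-response retesting of NadD inhibitor hits first found in an ultra-high-throughput screen.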

Sequence of Photoreceptor-specific nuclear receptor (Q9Y5X4 whole entry, the tested form may be a part): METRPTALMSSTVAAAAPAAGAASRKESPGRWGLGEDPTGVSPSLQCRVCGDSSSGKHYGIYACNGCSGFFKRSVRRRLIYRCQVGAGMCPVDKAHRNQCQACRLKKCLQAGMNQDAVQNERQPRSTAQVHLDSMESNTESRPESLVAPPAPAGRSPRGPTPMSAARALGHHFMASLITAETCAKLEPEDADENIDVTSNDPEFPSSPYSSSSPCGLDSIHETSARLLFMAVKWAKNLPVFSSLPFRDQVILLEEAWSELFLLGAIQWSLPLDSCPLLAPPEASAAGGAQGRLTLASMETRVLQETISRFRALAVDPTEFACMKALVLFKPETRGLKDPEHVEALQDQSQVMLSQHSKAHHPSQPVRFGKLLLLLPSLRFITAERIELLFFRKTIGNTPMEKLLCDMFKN
T3 sequence (P65502 whole entry): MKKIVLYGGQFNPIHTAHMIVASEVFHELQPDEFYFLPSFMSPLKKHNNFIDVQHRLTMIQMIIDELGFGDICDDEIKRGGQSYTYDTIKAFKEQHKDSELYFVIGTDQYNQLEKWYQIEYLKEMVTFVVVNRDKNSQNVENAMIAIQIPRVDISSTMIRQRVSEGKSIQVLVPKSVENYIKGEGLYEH

Consider `O=C(O)COc1ccccc1/C=N/NC(=O)c1cccc(S(=O)(=O)Nc2cccc(Cl)c2)c1`, for which the IC50 on Leucine aminopeptidase was 21.3 µM (active). In addition, the AC50 – broadly, the concentration giving half of the maximal activity seen – in [1] was 73.8 µM (active).
Consider `O=C(c1ccc(Cl)cc1)N1CCN(c2cc(-c3ccccc3)nc3cc(-c4cccc(Cl)c4)nn23)CC1`, for which the EC50 in assay [2] was 1.74 µM (active); in assay [3], 1.99 µM (active).
In the case of `COc1ccc(-n2c(C)cc(C(=O)COC(=O)c3ccc(O)cc3O)c2C)cc1`, in [4], the IC50 was 5.7 µM (active).
For `Cc1ccc(C(=O)Nc2cccc([N+](=O)[O-])c2)cc1S(=O)(=O)Nc1ccc(NC(=O)c2ccccc2)cc1`, the EC50 in “cells [5]” and in the assay “cells [7]” was > 350 µM (not active) each time. Besides, the IC50 was 61.1 µM (active) in assay [6] and 25.9 µM (active) in assay [8].
Take `O=C(NC(=O)N1CCN(c2cccc(Cl)c2)CC1)c1ccc(Cl)cc1`: in [9], the concentration at half-maximal activity (AC50) was 0.263 µM (active). The IC50 in assay [4] was 3.05 µM (active).
On to `O=C(c1ccco1)N1CCN(c2cc(-c3ccccc3)nc3cc(-c4ccc(Cl)cc4)nn23)CC1`, for which the results for the EC50 in assay [2] and in assay [3] were 2.6 µM (active) and 0.99 µM (active), respectively.
